Values of other authors, collected in US20240000780A1, “PED5 INHIBITOR SEMI-SOLID COMPOSITIONS AND METHODS OF MAKING AND USING THEREOF” (Seattle Gummy Company, priority 2021, published 2024).

Conditions: ranking among alpha, beta, gamma cyclodextrins

SMILES	stability of complex formed with tadalafil
OC[C@H]1O[C@@H]2O[C@H]3[C@H](O)[C@@H](O)[C@@H](O[C@H]4[C@H](O)[C@@H](O)[C@@H](O[C@H]5[C@H](O)[C@@H](O)[C@@H](O[C@H]6[C@H](O)[C@@H](O)[C@@H](O[C@H]7[C@H](O)[C@@H](O)[C@@H](O[C@H]8[C@H](O)[C@@H](O)[C@@H](O[C@H]9[C@H](O)[C@@H](O)[C@@H](O[C@H]1[C@H](O)[C@H]2O)O[C@@H]9CO)O[C@@H]8CO)O[C@@H]7CO)O[C@@H]6CO)O[C@@H]5CO)O[C@@H]4CO)O[C@@H]3CO [gamma, gamma-cyclodextrin]	most stable complex
OC[C@H]1O[C@@H]2O[C@H]3[C@H](O)[C@@H](O)[C@@H](O[C@H]4[C@H](O)[C@@H](O)[C@@H](O[C@H]5[C@H](O)[C@@H](O)[C@@H](O[C@H]6[C@H](O)[C@@H](O)[C@@H](O[C@H]7[C@H](O)[C@@H](O)[C@@H](O[C@H]1[C@H](O)[C@H]2O)O[C@@H]7CO)O[C@@H]6CO)O[C@@H]5CO)O[C@@H]4CO)O[C@@H]3CO [alpha, alpha-cyclodextrin]	least stable
